Patent US11912665B1, “4-(2,4,5-tris(4-chlorophenyl)-1H-imidazol-1-yl)butanoic acid as an antimicrobial compound” (KING FAISAL UNIVERSITY, priority 2023, dated 2024)

Key:
Type in all cases: cell-based
Bacillus cereus = assay: agar plate disc-diffusion, antibacterial activity; details: nutrient agar, 37° C., 48 hours, DMSO zone subtracted; for inhibition zone Bacillus Cereus B: B = concentration of comp. = 30,000 μL; for inhibition zone Bacillus Cereus C: C = concentration of comp. = 50,000 μL
Method: (§1) The agar plate disc-diffusion method was applied. […] The discs were then placed onto the surface of agar plates (nutrient agar for bacteria and Sabouraud's dextrose agar for fungi) seeded with the test organism. Each plate contained 15 mL of the agar medium, previously seeded with 0.2 mL of the broth culture of each organism pregrown for 18 hours. The plates were incubated at 37° C. for 48 hours, and 72 hours for fungi. The inhibition zones were measured in millimeters (mm). Discs impregnated with DMSO were used as a control, and its inhibition zone was subtracted from the tested compound actual inhibition zone.

Staphylococcus aureus = assay: agar plate disc-diffusion, antibacterial activity; details: nutrient agar, 37° C., 48 hours, DMSO zone subtracted; for inhibition zone Staphylococcus aureus A: A = concentration of comp. = 10,000 μL; for inhibition zone Staphylococcus aureus B: B = concentration of comp. = 30,000 μL; for inhibition zone Staphylococcus aureus C: C = concentration of comp. = 50,000 μL
Method: as §1

Escherichia coli = assay: agar plate disc-diffusion, antibacterial activity; details: nutrient agar, 37° C., 48 hours, DMSO zone subtracted; for inhibition zone Escherichia coli A: A = concentration of comp. = 10,000 μL; for inhibition zone Escherichia coli B: B = concentration of comp. = 30,000 μL; for inhibition zone Escherichia coli C: C = concentration of comp. = 50,000 μL
Method: (§2) The agar plate disc-diffusion method was applied. Sterilized filter papers (6 mm in diameter) were wetted with 10 μL of a solution of 4-(2,4,5-tris(4-chlorophenyl)-1H-imidazol-1-yl)butanoic acid (V) to be tested, containing 10 mg/mL in DMSO, and the discs were allowed to air dry. The discs were then placed onto the surface of agar plates (nutrient agar for bacteria and Sabouraud's dextrose agar for fungi) seeded with the test organism. Each plate contained 15 mL of the agar medium, previously seeded with 0.2 mL of the broth culture of each organism pregrown for 18 hours. The plates were incubated at 37° C. for 48 hours, and 72 hours for fungi. The inhibition zones were measured in millimeters (mm). Discs impregnated with DMSO were used as a control, and its inhibition zone was subtracted from the tested compound actual inhibition zone.

Pseudomonas aeruginosa = assay: agar plate disc-diffusion, antibacterial activity; details: nutrient agar, 37° C., 48 hours, DMSO zone subtracted; for inhibition zone Pseudomonas aeruginosa A: A = concentration of comp. = 10 mg/mL; for inhibition zone Pseudomonas aeruginosa B: B = concentration of comp. = 30,000 μL; for inhibition zone Pseudomonas aeruginosa C: C = concentration of comp. = 50,000 μL
Method: as §2

Aspergillus flavus = assay: agar plate disc-diffusion, antifungal activity; details: Sabouraud's dextrose agar, 72 hours, DMSO zone subtracted; for inhibition zone Aspergillus flavus A: A = concentration of comp. = 10,000 μL; for inhibition zone Aspergillus flavus B: B = concentration of comp. = 30,000 μL; for inhibition zone Aspergillus flavus C: C = concentration of comp. = 50,000 μL
Method: as §1

[1] = test system: Chrysosporium keratinophilum; assay: agar plate disc-diffusion, antifungal activity; details: Sabouraud's dextrose agar, 72 hours, DMSO zone subtracted; for inhibition zone Chrysosporium keratinophilum A: A = concentration of comp. = 10,000 μL; for inhibition zone Chrysosporium keratinophilum B: B = concentration of comp. = 30,000 μL; for inhibition zone Chrysosporium keratinophilum C: C = concentration of comp. = 50,000 μL
Method: as §1

Compound	inhibition zone Bacillus Cereus A (Bacillus cereus)	inhibition zone Bacillus Cereus B (Bacillus cereus)	inhibition zone Bacillus Cereus C (Bacillus cereus)	inhibition zone Staphylococcus aureus A (Staphylococcus aureus)	inhibition zone Staphylococcus aureus B (Staphylococcus aureus)	inhibition zone Staphylococcus aureus C (Staphylococcus aureus)	inhibition zone Escherichia coli A (Escherichia coli)	inhibition zone Escherichia coli B (Escherichia coli)	inhibition zone Escherichia coli C (Escherichia coli)	inhibition zone Pseudomonas aeruginosa A (Pseudomonas aeruginosa)	inhibition zone Pseudomonas aeruginosa B (Pseudomonas aeruginosa)	inhibition zone Pseudomonas aeruginosa C (Pseudomonas aeruginosa)	inhibition zone Aspergillus flavus A (Aspergillus flavus)	inhibition zone Aspergillus flavus B (Aspergillus flavus)	inhibition zone Aspergillus flavus C (Aspergillus flavus)	inhibition zone Chrysosporium keratinophilum A [1]	inhibition zone Chrysosporium keratinophilum B [1]	inhibition zone Chrysosporium keratinophilum C [1]
O=C(O)c1cn(C2CC2)c2cc(N3CCNCC3)c(F)cc2c1=O [Cip., ciprofloxacin]	29 mm	31 mm	42 mm	42 mm	44 mm	53 mm	30 mm	39 mm	60 mm	29 mm	30 mm	53 mm	29 mm	30 mm	42 mm	29 mm	30 mm	53 mm
O=C(O)CCCn1c(-c2ccc(Cl)cc2)nc(-c2ccc(Cl)cc2)c1-c1ccc(Cl)cc1 [V, 4-(2,4,5-tris(4-chlorophenyl)-1H-imidazol-1-yl)butanoic acid]	19 mm	25 mm	40 mm	14 mm	19 mm	26 mm	24 mm	35 mm	51 mm	26 mm	31 mm	46 mm	16 mm	22 mm	36 mm	25 mm	28 mm	49 mm
